The structures appear in SMILES notation.

Test [1] has as its system weeds. The test can be described thus: Glasshouse weed control by HST/HPPD (mesotrione) mixtures, post-emergence. The class given is in vivo. The note with it: 14 DAT; for % damage, mesotrione alone: post-emergence, mesotrione 1 g/ha. The procedure: (§1) Weed seeds are planted out in trays containing suitable soil (for example 50% peat, 50% John Innes soil no 3) and grown in the glass house conditions under 24-27° C. day; 18-21° C. night and approximately a 14 h (or longer in UK summer) photoperiod. Humidity is ˜65% and light levels up to 2000 μmol/m^2 at bench level. Trays are sprayed with test chemicals dissolved in water with 0.2-0.25% X-77 surfactant and sprayed from a boom on a suitable track sprayer moving at about 2 mph in a suitable track sprayer (for example a DeVries spray chamber with the nozzle about 2 inches from the plant tops). Spray volume is suitably 500-1000 l/ha. Sprays are carried out both pre-emergence and over small plants at about 7-12 d post-emergence
(§2) Plants are assessed 14 DAT and herbicidal damage is scored on a scale from 0 to 100%. The HST inhibitor compound 2.30 (designated compound A in table 16 and 17), haloxydine (compound 1.1) and compound 2.13 (designated compound AE in tables 16 and 17) are sprayed at rates between 0 and 500 g/ha.

Test [2] has as its system weeds. Kind of test: Glasshouse weed control by HST/HPPD (mesotrione) mixtures, pre-emergence. The class given is in vivo. The note with it: 1 g/ha, N = 3. The protocol: as §1, §2

As for `CS(=O)(=O)c1ccc(C(=O)C2C(=O)CCCC2=O)c([N+](=O)[O-])c1` [Mesotrione, mesotrione, reference compound], the damage with weeds [1] (1 g/ha, pre- and post-emergence sprays) is < 10%. In addition, the entries for the “% damage, mesotrione alone” value in the test with weeds [1] (ALOMY), with weeds [1] (ECHCG) and with weeds [1] (SETFA) were 0%, 8% and 0%, respectively. Moreover, the “% Damage at 14 DAA, mesotrione alone” value in the test on weeds [2] (ALOMY) was 0%; in the test on weeds [2] (AMARE), 2%; in the test on weeds [2] (ECHCG) it was 0%; with weeds [2] (IPOHE), 0%; in the test with weeds [2] (SETFA), 0%; in the test with weeds [2] (SOLNI), 17%.
